Source: patent publication EP3771714A1, “NITROGEN-CONTAINING HETEROCYCLES AS PESTICIDES” (Bayer AG, priority 2019, dated 2021)
“And” between values parts separate entries of the source, which are not always exact repeats. Identical values can stand only once. Like-named read-outs stand apart in the source and are kept apart here. Values belong to the molecule of their own block, whether it stands above or below them.

Key:
Diabrotica balteata = Diabrotica balteata spray test; type: in vivo; details: 500 g/ha (=160 µg/Kavität); wheat (Triticum aestivum) with beetle larvae; after 7 days; 100 % = all wheat plants grown as in untreated, uninfected control
Excerpt: (§1) Zur Herstellung einer zweckmäßigen Wirkstoffzubereitung löst man 1 Gewichtsteil Wirkstoff mit den angegebenen Gewichtsteilen Lösungsmittel und füllt mit Wasser, welches eine Emulgatorkonzentration von 1000 ppm enthält, bis zum Erreichen der gewünschten Konzentration auf. Zur Herstellung weiterer Testkonzentrationen wird mit emulgatorhaltigem Wasser verdünnt.
Vorgequollene Weizenkörner (Triticum aestivum) werden in einer mit Agar und etwas Wasser gefüllten Multiwell-Platte für einen Tag inkubiert (5 Saatkörner pro Kavität). Die gekeimten Weizenkörner werden mit einer Wirkstoffzubereitung der gewünschten Konzentration gespritzt. Anschließend wird jede Kavität mit 10-20 Käferlarven von Diabrotica balteata infiziert.
Nach 7 Tagen wird die Wirkung in % bestimmt. Dabei bedeutet 100 %, dass alle Weizenpflanzen wie in der unbehandelten, nicht infizierten Kontrolle gewachsen sind; 0 % bedeutet, dass keine Weizenpflanze gewachsen ist.

Myzus persicae [1] = assay: Myzus persicae spray test; type: in vivo; details: 100 g/ha; Chinese cabbage leaf discs (Brassica pekinensis), all stages; after 5 days
Excerpt: Bei diesem Test zeigten z. B. die folgenden Verbindungen der Herstellungsbeispiele Wirkung von 100 % bei einer Aufwandmenge von 20 ppm: 1. Myzus persicae - Sprühtest
as §1
Chinakohlblattscheiben (Brassica pekinensis), die von allen Stadien der Grünen Pfirsichblattlaus (Myzus persicae) befallen sind, werden mit einer Wirkstoffzubereitung der gewünschten Konzentration gespritzt.
(§2) Nach 5 Tagen wird die Wirkung in % bestimmt. Dabei bedeutet 100 %, dass alle Blattläuse abgetötet wurden; 0 % bedeutet, dass keine Blattläuse abgetötet wurden.

[2] = logP determination by HPLC on reversed-phase (C18) columns, OECD Guideline 117; type: physicochemical
Excerpt: Die Eichung erfolgt mit unverzweigten Alkan-2-onen (mit 3 bis 16 Kohlenstoffatomen), deren logP-Werte bekannt sind (Bestimmung der logP-Werte anhand der Retentionszeiten durch lineare Interpolation zwischen zwei aufeinander folgenden Alkanonen).

Nilaparvata lugens = Nilaparvata lugens test; type: in vivo; details: 500 g/ha; rice plants (Oryza sativa); after 4 days
Excerpt: Bei diesem Test zeigten z. B. die folgenden Verbindungen der Herstellungsbeispiele Wirkung von 90 % bei einer Aufwandmenge von 500 g/ha: 1. Nilaparvata lugens -Test
as §1
Reispflanzen (Oryza sativa) werden mit der Wirkstoffzubereitung der gewünschten Konzentration gespritzt und anschließend mit der Braunrückigen Reiszikade (Nilaparvata lugens) infiziert.
Nach 4 Tagen wird die Wirkung in % bestimmt. Dabei bedeutet 100 %, dass alle Reiszikaden abgetötet wurden; 0 % bedeutet, dass keine Reiszikaden abgetötet wurden.

Phaedon cochleariae = Phaedon cochleariae spray test; type: in vivo; details: 500 g/ha; Chinese cabbage leaf discs (Brassica pekinensis), larvae; after 7 days
Excerpt: Bei diesem Test zeigten z. B. die folgenden Verbindungen der Herstellungsbeispiele Wirkung von 100 % bei einer Aufwandmenge von 500 g/ha: 1. Phaedon cochleariae - Sprühtest
as §1
Chinakohlblattscheiben (Brassica pekinensis) werden mit einer Wirkstoffzubereitung der gewünschten Konzentration gespritzt und nach dem Abtrocknen mit Larven des Meerrettichblattkäfers (Phaedon cochleariae) besetzt.
Nach 7 Tagen wird die Wirkung in % bestimmt. Dabei bedeutet 100 %, dass alle Käferlarven abgetötet wurden; 0 % bedeutet, dass keine Käferlarven abgetötet wurden.

Nezara viridula = Nezara viridula spray test; type: in vivo; details: 500 g/ha; barley plants (Hordeum vulgare) with larvae; after 4 days
Excerpt: Bei diesem Test zeigten z. B. die folgenden Verbindungen der Herstellungsbeispiele Wirkung von 90 % bei einer Aufwandmenge von 100 g/ha: 1, 5, 6, 9. Nezara viridula -Sprühtest
as §1
Gerstenpflanzen (Hordeum vulgare), die mit Larven der Grünen Reiswanze (Nezara viridula) infiziert sind, werden mit einer Wirkstoffzubereitung der gewünschten Konzentration gespritzt.
Nach 4 Tagen wird die Wirkung in % bestimmt. Dabei bedeutet 100 %, dass alle Reiswanzen abgetötet wurden; 0 % bedeutet, dass keine Reiswanzen abgetötet wurden.

Myzus persicae [3] = assay: Myzus persicae oral test; type: in vivo; details: 20 ppm; mixed population, uptake through Parafilm; after 5 days
Description: Bei diesem Test zeigten z. B. die folgenden Verbindungen der Herstellungsbeispiele Wirkung von 100 % bei einer Aufwandmenge von 500 g/ha (=160 µg/Kavität): 1, 2, 3, 5, 6, 7, 8, 9, 10, 11, 12. Myzus persicae - Oraltest
Zur Herstellung einer zweckmäßigen Wirkstoffzubereitung löst man 1 Gewichtsteil Wirkstoff mit den angegebenen Gewichtsteilen Lösungsmittel und füllt mit Wasser bis zum Erreichen der gewünschten Konzentration auf.
50 µl der Wirkstoffzubereitung werden in Mikrotiterplatten überführt und mit 150µl IPL41Insektenmedium (33% + 15% Zucker) auf eine Endvolumen von 200 µl aufgefüllt. Anschließend werden die Platten mit Parafilm verschlossen, durch den eine gemischte Population der Grünen Pfirsichblattlaus (Myzus persicae), die sich in einer zweiten Mikrotiterplatte befindet, hindurchstechen und die Lösung aufnehmen kann.
as §2

Tetranychus urticae = Tetranychus urticae spray test, OP-resistant; type: in vivo; details: 500 g/ha; bean leaf discs (Phaseolus vulgaris), all stages, OP-resistent; after 6 days
Excerpt: Bei diesem Test zeigten z. B. die folgenden Verbindungen der Herstellungsbeispiele Wirkung von 100 % bei einer Aufwandmenge von 500 g/ha: 1. Tetranychus urticae - Sprühtest, OP-resistent
as §1
Bohnenblattscheiben (Phaseolus vulgaris), die von allen Stadien der Gemeinen Spinnmilbe (Tetranychus urticae) befallen sind, werden mit einer Wirkstoffzubereitung der gewünschten Konzentration gespritzt.
Nach 6 Tagen wird die Wirkung in % bestimmt. Dabei bedeutet 100 %, dass alle Spinnmilben abgetötet wurden; 0 % bedeutet, dass keine Spinnmilben abgetötet wurden.

Ctenocephalides felis = Ctenocephalides felis oral test; type: in vivo; details: 100 ppm in citrated cattle blood; adult cat fleas; after 2 days
Description: Ctenocephalides felis - Oraltest
Zwecks Herstellung einer zweckmäßigen Wirkstoffzubereitung vermischt man 10 mg Wirkstoff mit 0,5 ml Dimethylsulfoxid. Durch Verdünnen mit citriertem Rinderblut erhält man die gewünschte Konzentration.
Ca. 20 nüchterne adulte Katzenflöhe (Ctenocephalides felis) werden in eine Kammer eingesetzt, die oben und unten mit Gaze verschlossen ist. Auf die Kammer wird ein Metallzylinder gestellt, dessen Unterseite mit Parafilm verschlossen ist. Der Zylinder enthält die Blut-Wirkstoffzubereitung, die von den Flöhen durch die Parafilmmembran aufgenommen werden kann.
Nach 2 Tagen wird die Abtötung in % bestimmt. Dabei bedeutet 100 %, dass alle Flöhe abgetötet wurden; 0 % bedeutet, dass keiner der Flöhe abgetötet wurde.

[4] = reversed-phase (C18) HPLC column, HPLC-MS (ESI-positiv), acidic or neutral range not given, read-out: LogP-Wert
[5] = HPLC-MS (ESI-positiv), acidic or neutral range not given
[6] = HPLC-MS/UPLC-MS neutral (method [b], pH 7,8)
[7] = pH 7.8, HPLC-MS/UPLC-MS neutral (method [b], pH 7,8), read-out: LogP-Wert

Compound: FC(F)(F)c1ccc(-n2ccccc2=Nc2nc(C3(F)CC3)cs2)cn1 [Beispiel 9]
Wirkung in % (Diabrotica balteata): 100% | Wirkung in % (Myzus persicae [1]): 90% | chromatographic logP ([2]; pH 2.7, LogP-Wert (HCOOH)): 2.04

Compound: CC(C)(C)c1csc(N=c2ccccn2-c2ccc(C(F)(F)F)nc2)n1 [Beispiel 11]
Wirkung in % (Diabrotica balteata): 100% | chromatographic logP ([2]; pH 2.7, LogP-Wert (HCOOH)): 1.47

Compound: FC(F)(F)c1ccc(-n2ccccc2=Nc2nc(C(F)(F)C(F)(F)F)cs2)cn1 [Beispiel 7]
Wirkung in % (Diabrotica balteata): 100% | chromatographic logP ([2]; pH 2.7, LogP-Wert (HCOOH)): 4.03

Compound: N#CC1(c2csc(N=c3ccccn3-c3ccc(C(F)F)nc3)n2)CC1 [Beispiel 12]
Wirkung in % (Diabrotica balteata): 100% | chromatographic logP ([2]; pH 7.8, LogP-Wert (neutral)): 2.65

Compound: N#CC1(c2csc(N=c3ccccn3-c3ccc(C(F)(F)F)nc3)n2)CC1 [Beispiel 8]
Wirkung in % (Diabrotica balteata): 100% | Wirkung in % (Myzus persicae [1]): 100% | chromatographic logP ([2]; pH 2.7, LogP-Wert (HCOOH)): 2.39

Compound: FC(F)(F)c1ccc(-n2ccccc2=Nc2nc(C(F)(F)F)cs2)cn1 [Beispiel 3, 1-[(6-Trifluormethyl-3-pyridyl]-N-(4-trifluormethylthiazol-2-yl))pyridin-2-imin]
Wirkung in % (Diabrotica balteata): 100% | Wirkung in % (Myzus persicae [1]): 100% | LogP-Wert [2, 5]: LogP-Wert = 3,60

Compound: NC(=S)N=c1ccccn1-c1ccc(C(F)(F)F)nc1 [VII-1, N-[1-[(6-Trifluormethyl-3-pyridinyl)]-2(1H)-pyridinyliden]-thioharnstoff]
LogP-Wert [2, 5]: 1,12 and 1,14

Compound: CC1(c2csc(N=c3ccccn3-c3ccc(C(F)(F)F)nc3)n2)CC1 [Beispiel 10]
Wirkung in % (Diabrotica balteata): 100% | chromatographic logP ([2]; pH 7.8, LogP-Wert (neutral)): 3.99

Compound: FC(F)c1ccc(-n2ccccc2=S)cn1 [II-2, 6'-Difluormethyl-[1(2H), 3'-bipyridin]-2-thion]
LogP-Wert [2]: 1,23 | chromatographic logP ([2]; LogP-Wert): 1.18

Compound: FC(F)(F)c1ccc(-n2ccccc2=Nc2nc(C3CC3)cs2)cn1 [Beispiel 6]
Wirkung in % (Diabrotica balteata): 100% | Wirkung in % (Myzus persicae [1]): 90% | chromatographic logP ([2]; pH 2.7, LogP-Wert (HCOOH)): 1.34

Compound: CCc1csc(N=c2ccccn2-c2ccc(C(F)(F)F)nc2)n1 [Beispiel 5]
Wirkung in % (Diabrotica balteata): 100% | Wirkung in % (Myzus persicae [1]): 90% | chromatographic logP ([2]; pH 2.7, LogP-Wert (HCOOH)): 1.13

Compound: FC(F)c1ccc(-n2ccccc2=Nc2nc(C3(F)CC3)cs2)cn1 [Beispiel 2]
Wirkung in % (Diabrotica balteata): 100% | LogP-Wert [2, 6]: LogP-Wert = 3,02

Compound: FC(F)(F)c1ccc(-n2ccccc2=S)cn1 [II-1, 6'-Trifluormethyl-[1(2H), 3'-bipyridin]-2-thion]
chromatographic logP [2, 7]: 1.67

Compound: N=C(N=c1ccccn1-c1ccc(C(F)(F)F)nc1)SCC(=O)C(F)(F)F [N-[1-[(6-trifluormethyl-3-pyridyl)]-2-pyridyliden]-imidothio-(3,3,3-trifluoro-2-oxopropyl)-ester]
LogP-Wert [2, 6]: 2,39 | chromatographic logP [2, 7]: 2.37

Compound: FC(F)(F)c1ccc(-n2ccccc2=Nc2ncccn2)cn1 [Beispiel 4, 1-[(6-Trifluormethyl-3-pyridyl]-N-(pyrimid-2-yl))pyridin-2-imin]
LogP-Wert [2, 5]: LogP-Wert = 1,38

Compound: Cc1csc(N=c2ccccn2-c2ccc(C(F)(F)F)nc2)n1 [Beispiel 1]
Wirkung in % (Nilaparvata lugens): 100% | Wirkung in % (Diabrotica balteata): 100% | Wirkung in % (Phaedon cochleariae): 100% | Wirkung in % (Nezara viridula): 90% | Wirkung in % (Myzus persicae [3]): 100% | Wirkung in % (Myzus persicae [1]): 90% | Wirkung in % (Tetranychus urticae): 90% | LogP-Wert [2, 5]: LogP-Wert = 1,08 | Abtötung in % (Wirkung) (Ctenocephalides felis): 80%

Further lines, results first:

chromatographic logP [2, 4]: 2.17
Compound: N=c1ccccn1-c1ccc(C(F)(F)F)nc1 [IV-1, 6'-Trifluormethyl-[1(2H), 3'-bipyridin]-2-imin-hydrogeniodid]

chromatographic logP ([2]; pH 7.8, LogP-Wert): 0.7
Compound: NC(=S)N=c1ccccn1-c1ccc(C(F)F)nc1 [VII-2, N-[1-[(6-Difluormethyl-3-pyridinyl)]-2(1H)-pyridinyliden]-thioharnstoff]

chromatographic logP ([2]; LogP-Wert): 0.04
Compound: CSc1cccc[n+]1-c1ccc(C(F)F)nc1 [III-2]

chromatographic logP ([2]; pH 7.8, LogP-Wert): 1.71
Compound: CCOC(=O)NC(=S)N=c1ccccn1-c1ccc(C(F)(F)F)nc1 [VI-1, Ethyl N-[1-[(6-trifluormethyl-3-pyridyl)]-2-pyridylidene]carbamothioylcarbamat]

chromatographic logP [2, 4]: 0.57
Compound: CSc1cccc[n+]1-c1ccc(C(F)(F)F)nc1 [III-1]

chromatographic logP ([2]; pH 7.8, LogP-Wert): 1.28
Compound: CCOC(=O)NC(=S)N=c1ccccn1-c1ccc(C(F)F)nc1 [VI-2, Ethyl N-[1-[(6-difluormethyl-3-pyridyl)]-2-pyridylidene]carbamothioylcarbamat]
